{"source": "patent US5547939A", "about": "“Broad spectrum antimicrobial compounds and methods of use” (priority 1994, dated 1996)", "key": {"Escherichia coli ML35 [1]": {"system": "Escherichia coli ML35", "test": "Dose response bactericidal assay (CFU reduction), E. coli", "type": "cell-based", "details": "2 hr incubation", "method": "(§1) The time course and dose-dependence of the antimicrobial activity of an indolicidin analog can be determined by incubating a microorganism with the analog and determining the viability after various times of incubation or after treatment with various concentrations of the analog. Assays were performed in 10 mM sodium phosphate buffer, pH 7.4, at 37° C., as described by Selsted et al. (Infect. Immun. 45:150-154 (1985), which is incorporated herein by reference).\n(§2) The dose response of a gram negative bacterial strain, Escherichia coli ML35, and a gram positive bacterial strain, Staphylococcus aureus 502A, to indolicidin was determined by incubating 2×10^6 colony forming units (CFU) of log phase bacteria with 0-25 ug/ml of indolicidin for two hours. Following incubation, the cultures were serially diluted and plated on nutrient agar. […] E. coli was more susceptible than S. aureus, as>95% of the input cells were killed after 2 hr incubation with 2.5 ug/ml indolicidin. The indolicidin diluent, 0.01% acetic acid, had no effect on either bacterial strain."}, "[2]": {"system": "Staphylococcus aureus 502A", "test": "Agar diffusion assay, S. aureus", "type": "cell-based", "details": "S. aureus 502a, FIG. 6", "method": "(§3) The broad spectrum antimicrobial activity of indolicidin and indolicidin analogs also was determined using a gram negative bacterial strain, Escherichia coli ML35, a gram positive bacterial strain, Staphylococcus aureus 502A, and a fungus, Cryptococcus neoformans, in an agar diffusion assay, essentially as described by Hultmark et al., EMBO J. 2:571-576 (1983) as modified by Lehrer et al., J. Immunol. Meth. 137:167-173. Briefly, nutrient-containing agar (or agarose) plates were seeded with a selected target microorganism and 5-10 μl of peptide was placed into a well formed in the solid medium or onto a disc placed on the surface of the medium. Following an appropriate incubation interval, microbial growth inhibition was visualized and quantitated by measuring the clear zone around each well or disc (see, also, Selsted, 1993)."}, "Escherichia coli ML35 [3]": {"system": "Escherichia coli ML35", "test": "Agar diffusion assay, E. coli", "type": "cell-based", "details": "E. coli ML35, FIG. 4", "method": "as §3"}, "[4]": {"details": "five attempts to raise antibodies"}, "erythrocyte suspension": {"system": "erythrocyte suspension", "test": "Hemolytic assay (erythrocyte lysis assay)", "type": "cell-based", "details": "for % Hemolysis: 30 μg peptide, 18 hr at 37° C., 100% lysis = 1% NP40", "method": "The hemolytic activity of each peptide was examined using an erythrocyte lysis assay. An 8% (vol:vol) erythrocyte suspension in normal saline or in 80% mouse serum was incubated with 30 μg peptide. After 18 hr incubation at 37° C. intact erythrocytes were removed by centrifugation and the A550 of the supernatant was determined as a measure of hemolysis. As a control (100% lysis), supernatant was collected from an erythrocyte suspension treated with 1% NP40 detergent."}, "Cryptococcus neoformans": {"system": "Cryptococcus neoformans", "test": "Agar diffusion assay, C. neoformans", "type": "cell-based", "details": "FIG. 5", "method": "as §3"}, "[5]": {"system": "Staphylococcus aureus 502A", "test": "Dose response bactericidal assay (CFU reduction), S. aureus", "type": "cell-based", "details": "10 ug/ml, 2 hr incubation, 2×10^6 CFU, 10 mM sodium phosphate pH 7.4, 37° C.", "method": "as §1, §2"}, "E. coli": {"system": "E. coli", "test": "Microbicidal kinetics of indolicidin", "type": "cell-based, Escherichia coli", "details": "25 μg/ml", "method": "as §1\nThe kinetics of indolicidin antimicrobial activity was evaluated by incubating 2×10^6 E. coli with 25 ug/ml of indolicidin for 1-40 min. Following incubation for the appropriate time, an aliquot of the culture was removed and diluted and plated as described above."}, "[6]": {"details": "saline, 8% erythrocyte suspension in normal saline"}, "[7]": {"details": "serum, 8% erythrocyte suspension in 80% mouse serum"}}, "data": [{"molecule": "CC[C@H](C)[C@H](N)C(=O)N[C@@H](CC(C)C)C(=O)N1CCC[C@H]1C(=O)N[C@@H](Cc1c[nH]c2ccccc12)C(=O)N[C@@H](CCCCN)C(=O)N[C@@H](Cc1c[nH]c2ccccc12)C(=O)N1CCC[C@H]1C(=O)N[C@@H](Cc1c[nH]c2ccccc12)C(=O)N[C@@H](Cc1c[nH]c2ccccc12)C(=O)N1CCC[C@H]1C(=O)N[C@@H](Cc1c[nH]c2ccccc12)C(=O)N[C@@H](CCCNC(=N)N)C(=O)N[C@@H](CCCNC(=N)N)C(N)=O", "note": "[Indol-R12 R13 --NH2, H2 N--I--L--P--W--K--W--P--W--W--P--W--R--R--CONH2]", "values": [{"measurement": "input cells killed", "setting": "Escherichia coli ML35 [1]; 2.5 ug/ml", "result": "> 95", "unit": "%"}, {"measurement": "reduction of viability (CFU)", "setting": "Escherichia coli ML35 [1]; 10 ug/ml, 2×10^6 CFU, 10 mM sodium phosphate pH 7.4, 37° C.", "result": "reduced by at least four orders of magnitude"}, {"measurement": "antimicrobial activity (clear zone) compared with indolicidin", "setting": "[2]", "result": "greatest antimicrobial activity"}, {"measurement": "antimicrobial activity (clear zone) compared with indolicidin", "setting": "Escherichia coli ML35 [3]", "result": "greatest antimicrobial activity"}, {"measurement": "immunogenicity", "setting": "[4]", "result": "extremely low immunogenicity"}, {"measurement": "% Hemolysis", "setting": "erythrocyte suspension; [6]", "result": 78.5, "unit": "%"}, {"measurement": "% Hemolysis", "setting": "erythrocyte suspension; saline, 8% erythrocyte suspension in normal saline, listed as indolicidin", "result": "greatest hemolytic activity"}, {"measurement": "% Hemolysis", "setting": "erythrocyte suspension; [7]", "result": 2.3, "unit": "%"}, {"measurement": "antimicrobial activity (clear zone) compared with indolicidin", "setting": "Cryptococcus neoformans", "result": "greatest antimicrobial activity"}, {"measurement": "reduction of viability (CFU)", "setting": "[5]", "result": "reduced by at least four orders of magnitude"}, {"measurement": "state of the culture", "setting": "E. coli; after 20 min", "result": "essentially was sterilized"}, {"measurement": "reduction of number of E. coli CFU", "setting": "E. coli; within 5 min", "result": "three orders of magnitude"}]}, {"molecule": "H2 N--I--L--P--W--K--W--P--W--W--P--W--R--N--CONH2 [Indol-R12 W13 --NH2]", "values": [{"measurement": "antimicrobial activity (clear zone) compared with indolicidin", "setting": "[2]", "result": "markedly less potent than indolicidin"}, {"measurement": "antimicrobial activity (clear zone) compared with indolicidin", "setting": "Escherichia coli ML35 [3]", "result": "markedly less potent than indolicidin"}, {"measurement": "antimicrobial activity (clear zone) compared with indolicidin", "setting": "Cryptococcus neoformans", "result": "markedly less potent than indolicidin"}]}, {"molecule": "H2 N--I--L--P--W--K--W--P--W--W--P--W--K--CONH2 (H-ILPWKWPWWPWK-NH2) [Indol-K12 --NH2, indolicidin analog having a deletion of R-13 and a substitution of K-12 for R-12]", "values": [{"measurement": "antimicrobial selectivity (antimicrobial activity relative to hemolytic activity) compared with indolicidin", "setting": "erythrocyte suspension; FIGS. 4-6 and Table 2", "result": "greater antimicrobial selectivity than indolicidin"}]}, {"molecule": "CC[C@H](C)[C@H](N)C(=O)N[C@@H](CC(C)C)C(=O)N1CCC[C@H]1C(=O)N[C@@H](Cc1c[nH]c2ccccc12)C(=O)N[C@@H](CCCCN)C(=O)N[C@@H](Cc1c[nH]c2ccccc12)C(=O)N1CCC[C@H]1C(=O)N[C@@H](Cc1c[nH]c2ccccc12)C(=O)N[C@@H](Cc1c[nH]c2ccccc12)C(=O)N1CCC[C@H]1C(=O)N[C@@H](Cc1c[nH]c2ccccc12)C(=O)N[C@@H](CCCNC(=N)N)C(=O)N[C@@H](CCCNC(=N)N)C(=O)O", "note": "[Indol-R12 R13 --OH, H2 N--I--L--P--W--K--W--P--W--W--P--W--R--R--OH]", "values": [{"measurement": "% Hemolysis", "setting": "erythrocyte suspension; [6]", "result": 47.9, "unit": "%"}, {"measurement": "% Hemolysis", "setting": "erythrocyte suspension; [7]", "result": 3.0, "unit": "%"}]}, {"molecule": "H2 N--I--L--P--W--K--W--P--W--W--P--W--R--OH (H-ILPWKWPWWPWR-OH) [Indol-R12 --OH, indolicidin analog]", "values": [{"measurement": "antimicrobial activity (clear zone) compared with indolicidin", "setting": "[2]", "result": "markedly less potent than indolicidin"}, {"measurement": "antimicrobial activity (clear zone) compared with indolicidin", "setting": "Escherichia coli ML35 [3]", "result": "markedly less potent than indolicidin"}, {"measurement": "antimicrobial activity (clear zone) compared with indolicidin", "setting": "Cryptococcus neoformans", "result": "markedly less potent than indolicidin"}]}]}
